According to ChEMBL document CHEMBL1151429, “Novel drug resistance pattern associated with the mutations K70G and M184V in human immunodeficiency virus type 1 reverse transcriptase” (2007):

Key:
Format in all cases: functional
[1] = tested on: Human immunodeficiency virus 1; assay: Ratio of IC50 for HIV1 with reverse transcriptase K70E/M184V mutation to IC50 for wild type HIV1
[2] = tested on: Human immunodeficiency virus 1; assay: Ratio of IC50 for HIV1 with reverse transcriptase K70G/M184V mutation to IC50 for wild type HIV1
[3] = tested on: Human immunodeficiency virus 1; assay: Antiviral activity against HIV1 with reverse transcriptase K70E M184V and K70G M184V mutation by antivirogram biological cutoffs assay relative to wild type HIV1
[4] = tested on: Human immunodeficiency virus 1; assay: Ratio of IC50 for HIV1 with reverse transcriptase K70G mutation to IC50 for wild type HIV1
[5] = tested on: Human immunodeficiency virus 1; assay: Antiviral activity against HIV1 LAI with reverse transcriptase K70E mutation relative to wild type HIV1 LAI

SMILES | Ratio IC50 [1] | Ratio IC50 [2] | fold change (FC) [3] | Ratio IC50 [4] | fold change (FC) [5]
C[C@H](Cn1cnc2c(N)ncnc21)OCP(=O)(O)O [TENOFOVIR ANHYDROUS] | 1.7 | 1.5 | 2.1 | 1.9 | –
Nc1nc(=O)c2ncn([C@H]3C=C[C@@H](COP(=O)(O)OP(=O)(O)OP(=O)(O)O)C3)c2[nH]1 [CARBOVIR 5'-TRIPHOSPHATE, (-)-] | – | – | – | – | 2.3
Nc1nc(=O)n([C@@H]2CS[C@H](CO)O2)cc1F [EMTRICITABINE] | >40.8 | >63.4 | 3.5 | – | –
Nc1ccn([C@@H]2CS[C@H](CO)O2)c(=O)n1 [LAMIVUDINE] | – | – | 2.4 | – | –
O=c1[nH]cnc2c1ncn2[C@H]1CC[C@@H](CO)O1 [DIDANOSINE] | 1.6 | 5.3 | 2.2 | 2.1 | –
Cc1cn([C@H]2C[C@H](N=[N+]=[N-])[C@@H](CO)O2)c(=O)[nH]c1=O [ZIDOVUDINE] | <0.3 | <0.8 | 2.7 | – | –
Nc1nc(NC2CC2)c2ncn([C@H]3C=C[C@@H](CO)C3)c2n1 [ABACAVIR] | 1.3 | 3.2 | 2.2 | 2.1 | –
C[C@H](Cn1cnc2c(N)ncnc21)OCP(=O)(O)OP(=O)(O)OP(=O)(O)O | – | – | – | – | 2.1
Nc1ccn([C@@H]2CS[C@H](COP(=O)(O)OP(=O)(O)OP(=O)(O)O)O2)c(=O)n1 [LAMIVUDINE TRIPHOSPHATE] | – | – | – | – | 3.5
Cc1cn([C@H]2C=C[C@@H](CO)O2)c(=O)[nH]c1=O [STAVUDINE] | 0.4 | 0.9 | 2.3 | 1.3 | –
